Values joined by “and” are separate entries in the source; they are usually repeats but may differ in a detail not shown here. Identical values can stand only once.
T1: Gox0646 (Gluconobacter oxydans, UniProt Q5FT73)
T1 sequence (Q5FT73 1-264): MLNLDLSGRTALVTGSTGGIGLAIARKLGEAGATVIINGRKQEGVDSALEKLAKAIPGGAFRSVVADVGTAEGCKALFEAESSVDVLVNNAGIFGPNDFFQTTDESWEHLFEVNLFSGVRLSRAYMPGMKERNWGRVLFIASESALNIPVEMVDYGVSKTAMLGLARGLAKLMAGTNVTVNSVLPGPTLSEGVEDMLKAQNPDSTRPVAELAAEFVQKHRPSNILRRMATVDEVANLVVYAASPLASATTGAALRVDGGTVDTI

T2: Gox1615 (Gluconobacter oxydans, UniProt Q5FQJ0)
T2 sequence (Q5FQJ0 1-332): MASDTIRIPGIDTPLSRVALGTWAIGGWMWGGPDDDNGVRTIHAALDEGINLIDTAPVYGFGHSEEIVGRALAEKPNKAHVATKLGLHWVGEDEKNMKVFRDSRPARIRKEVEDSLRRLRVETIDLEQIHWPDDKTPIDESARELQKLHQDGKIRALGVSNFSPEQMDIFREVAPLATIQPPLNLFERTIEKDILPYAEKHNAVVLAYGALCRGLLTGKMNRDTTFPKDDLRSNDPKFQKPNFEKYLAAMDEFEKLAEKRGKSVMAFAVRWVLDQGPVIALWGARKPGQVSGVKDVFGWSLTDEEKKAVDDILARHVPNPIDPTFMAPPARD

T3: Gox0502 (Gluconobacter oxydans, UniProt Q5FTL6)
T3 sequence (Q5FTL6 1-361): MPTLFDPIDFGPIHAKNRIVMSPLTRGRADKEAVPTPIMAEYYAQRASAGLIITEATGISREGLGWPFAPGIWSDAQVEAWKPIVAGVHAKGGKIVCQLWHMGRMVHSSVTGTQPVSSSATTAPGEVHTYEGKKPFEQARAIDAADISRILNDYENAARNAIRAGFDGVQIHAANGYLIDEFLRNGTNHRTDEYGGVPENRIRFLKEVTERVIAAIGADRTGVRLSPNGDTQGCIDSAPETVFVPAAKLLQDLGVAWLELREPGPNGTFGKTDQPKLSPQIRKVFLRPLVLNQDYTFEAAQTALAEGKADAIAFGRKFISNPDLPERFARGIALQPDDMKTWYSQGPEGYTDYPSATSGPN

T4: Gox2684 (Gluconobacter oxydans, UniProt Q5HXK5)
T4 sequence (Q5HXK5 1-357): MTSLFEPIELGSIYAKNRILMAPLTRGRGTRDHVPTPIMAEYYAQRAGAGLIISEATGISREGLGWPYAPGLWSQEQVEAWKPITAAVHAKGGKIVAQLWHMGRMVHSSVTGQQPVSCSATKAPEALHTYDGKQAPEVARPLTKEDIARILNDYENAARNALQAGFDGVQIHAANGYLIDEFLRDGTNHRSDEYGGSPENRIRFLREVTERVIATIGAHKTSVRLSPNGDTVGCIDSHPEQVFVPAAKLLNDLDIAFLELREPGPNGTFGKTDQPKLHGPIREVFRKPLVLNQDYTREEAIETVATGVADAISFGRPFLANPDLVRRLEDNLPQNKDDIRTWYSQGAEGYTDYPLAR

T5: Gox0313 (Gluconobacter oxydans, UniProt Q5FU50)
T5 sequence (Q5FU50 1-343): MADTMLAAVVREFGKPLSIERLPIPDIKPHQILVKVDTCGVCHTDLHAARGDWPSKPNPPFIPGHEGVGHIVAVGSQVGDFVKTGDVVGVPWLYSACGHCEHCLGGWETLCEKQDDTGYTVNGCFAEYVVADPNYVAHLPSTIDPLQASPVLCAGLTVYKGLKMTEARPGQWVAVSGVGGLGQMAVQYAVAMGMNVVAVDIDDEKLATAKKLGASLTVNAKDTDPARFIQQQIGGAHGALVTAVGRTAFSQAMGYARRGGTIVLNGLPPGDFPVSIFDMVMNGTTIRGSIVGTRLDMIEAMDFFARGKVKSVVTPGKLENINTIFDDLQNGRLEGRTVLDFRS

B1: Gox0313 (Gluconobacter oxydans 621H) (protein)
chain: MADTMLAAVVREFGKPLSIERLPIPDIKPHQILVKVDTCGVCHTDLHAARGDWPSKPNPPFIPGHEGVGHIVAVGSQVGDFVKTGDVVGVPWLYSACGHCEHCLGGWETLCEKQDDTGYTVNGCFAEYVVADPNYVAHLPSTIDPLQASPVLCAGLTVYKGLKMTEARPGQWVAVSGVGGLGQMAVQYAVAMGMNVVAVDIDDEKLATAKKLGASLTVNAKDTDPARFIQQQIGGAHGALVTAVGRTAFSQAMGYARRGGTIVLNGLPPGDFPVSIFDMVMNGTTIRGSIVGTRLDMIEAMDFFARGKVKSVVTPGKLENINTIFDDLQNGRLEGRTVLDFRS
B2: Gox0646 (Gluconobacter oxydans 621H) (protein)
chain: MLNLDLSGRTALVTGSTGGIGLAIARKLGEAGATVIINGRKQEGVDSALEKLAKAIPGGAFRSVVADVGTAEGCKALFEAESSVDVLVNNAGIFGPNDFFQTTDESWEHLFEVNLFSGVRLSRAYMPGMKERNWGRVLFIASESALNIPVEMVDYGVSKTAMLGLARGLAKLMAGTNVTVNSVLPGPTLSEGVEDMLKAQNPDSTRPVAELAAEFVQKHRPSNILRRMATVDEVANLVVYAASPLASATTGAALRVDGGTVDTI

Columns and labels:
Gox0646 = target: T1, Gox0646; assay: Enzyme activity assay (rate of NAD(P)H decrease at 340 nm), Gox0646; format: biochemical; details: 10 mM substrate; for Specific Activities: Tab. 9, GOX0646, cofactor NADPH, pH 7.0, 30 °C
Experimental: (§1) Measurment of enzyme activity: NADPH-dependent alpha-ketocarbonyl reductases were assayed by a routine method used for NAD(P)-linked enzymes by recording the rate of decrease of NADPH at 340 nm (ε = 6.22 mM^-1 x cm^-1)) with substrates at 30 °C. The reaction mixture (1 ml) for reduction of alpha-ketocarbonyl substrates contained 10 mM substrate, 40 mM potassium phosphate buffer pH 7.0, 0.025 mM NAD(P)H , and the enzyme. Reactions were induced by addition of enzyme or substrate. One unit of enzyme activity was defined as the amount of enzyme catalyzing the conversion of 1 µmol of pyridine nucleotide per min at 30 °C.
(§2) NADPH-dependent α-ketocarbonyl reductases were assayed by a routine method used for NAD(P)-linked enzymes by recording the rate of decrease of NADPH at 340 nm (ε = 6.22 mM^-1.cm^-1) with substrates at 30 °C. The reaction mixture (1 ml) for reduction of alpha-ketocarbonyl substrates contained 10 mM substrate, 40 mM potassium phosphate buffer pH 7.0, 0.025 mM NADPH , and the enzyme. Reactions were induced by addition of enzyme or substrate. One unit of enzyme activity was defined as the amount of enzyme catalyzing the conversion of 1 µmol of pyridine nucleotide per min at 30 °C.
(§3) For each enzyme (Gox0313, Gox0502, Gox0644, Gox0646, Gox1615, Gox2107, and Gox2684 respectively), fresh enzyme preparations were used to validate the substrate spectrum and the kinetic activity. […] Purified NAD(P)-dependent oxidoreductases were assayed at 30 °C by a routine method used for NAD(P)-linked enzymes by recording the rate of decrease of NAD(P)H at 340 nm (ε = […]) with substrates capable of reduction reactions. The standard reaction mixture (1 ml) for the reduction reactions of substrates contained 10 mM substrate, 40 mM potassium phosphate buffer (K-phosphate buffer) pH 7.0, 0.05 mM NAD(P)H, and the enzyme unless otherwise noted. Reactions were induced by addition of enzyme or substrate. One unit of enzyme activity was defined as the amount of enzyme catalyzing the conversion of 1 µmol of pyridine nucleotide per min at 30 °C. Measurement of the protein content was performed by the method of Bradford in Anal. Biochem. 72:248-254 (1976). Table 3: Summary of enzymatic activities with α-diketones, α-ketoaldehydes and /or α-ketoesters

Gox0644 = Gox0644 (Gluconobacter oxydans, UniProt Q5FT75); assay: Enzyme activity assay (rate of NAD(P)H decrease at 340 nm), Gox0644; format: biochemical; details: 10 mM substrate; for Specific Activity: Tab. 4, Gox0644, cofactor NADPH, pH 7.0, 30 °C
Experimental: (§4) Reactions were induced by addition of enzyme or substrate. One unit of enzyme activity was defined as the amount of enzyme catalyzing the conversion of 1 µmol of pyridine nucleotide per min at 30 °C.
as §4
For each enzyme (Gox0313, Gox0502, Gox0644, Gox0646, Gox1615, Gox2107, and Gox2684 respectively), fresh enzyme preparations were used to validate the substrate spectrum and the kinetic activity. […] Reactions were induced by addition of enzyme or substrate. One unit of enzyme activity was defined as the amount of enzyme catalyzing the conversion of 1 µmol of pyridine nucleotide per min at 30 °C. […] Table 3: Summary of enzymatic activities with α-diketones, α-ketoaldehydes and /or α-ketoesters

Gox1615 = target: T2, Gox1615; assay: Enzyme activity assay (rate of NAD(P)H decrease at 340 nm), Gox1615; format: biochemical; details: 10 mM substrate; for Specific Activity: Tab. 5, Gox1615, cofactor NADPH, pH 7.0, 30 °C
Experimental: as §1, §2, §3

Gox0502 = target: T3, Gox0502; assay: Enzyme activity assay (rate of NAD(P)H decrease at 340 nm), Gox0502; format: biochemical; design: Strep-tag II (N); made in house; host or cells: E. coli BL21 or E. coli DH5α (pASK-IBA5); details: 10 mM substrate; for Specific Activity: Tab. 7, Gox0502, cofactor NADPH, pH 7.0, 30 °C
Experimental: as §1, §2, §3

Gox2107 = Gox2107 (Gluconobacter oxydans, UniProt Q5FP53); assay: Enzyme activity assay (rate of NAD(P)H decrease at 340 nm), Gox2107; format: biochemical; details: for Specific Activity: Tab. 7, Gox2107, cofactor NADPH, 10 mM substrate, pH 7.0, 30 °C
Experimental: as §1, §2, §3

Gox2684 = target: T4, Gox2684; assay: Enzyme activity assay (rate of NAD(P)H decrease at 340 nm), Gox2684; format: biochemical; details: Tab. 8, GOX2684; cofactor NADPH; 10 mM substrate, pH 7.0, 30 °C
Experimental: as §1, §2, §3

Gox0313 = target: T5, Gox0313; assay: Enzyme activity assay (rate of NAD(P)H decrease at 340 nm), Gox0313; format: biochemical; details: 10 mM substrate; for Specific Activity: Tab. 6, Gox0313, substrate reduction, cofactor NADH, pH 7.0, 30 °C
Experimental: as §1, §2, §3

[1] = substrate: CCC(=O)C(C)=O; assay: Enzyme kinetics (Lineweaver-Burk plots), Gox0313; format: biochemical, Gluconobacter oxydans; details: other: Gox0313; substrate 0.025 to 10 mM
Experimental: (§5) Determination of pH and temperature optima and enzyme kinetics: The optimum pH for enzyme activities was determined by a modified method of Salusjärvi, T. et al., Appl. Microbiol. Biotechnol. 65:306-314 (2004) using the following buffer system (50 mM final concentration each): sodium acetate pH 4.5 - 6.5, potassium phosphate pH 6.5 - 8.0, Tris-HCl pH 8.0 - 10. Temperature optima for the biocatalysts were determined under standard reaction conditions at temperatures ranging from 20 - 80 °C. The Michaelis constant (Km) for the proteins was determined from purified enzyme by Lineweaver-Burk plots. Assays were performed at optimum pH for each enzyme and at 30 °C using the top substrate and a targeted substrate. The Km for each substrate was calculated using concentrations of 0.0025 to 10 mM, and the Km NAD(P)H and NAD(P) was calculated using concentrations of 0.01 to 0.5 mM
(§6) The Michaelis constants were determined from purified enzyme by Lineweaver-Burk plots. The Km and Vmax values for the substrates were calculated using concentrations of 0.025 to 10 mM, The optimal pH values and temperatures for enzyme activities are also shown in Tab. 11. Tab. 11: Summary of kinetic parameters

[2] = substrate: CC=O; assay: Enzyme kinetics (Lineweaver-Burk plots), Gox0313; format: biochemical, Gluconobacter oxydans; details: other: Gox0313; substrate 0.025 to 10 mM
Experimental: as §5, §6

[3] = substrate: CCC(=O)C(C)=O; assay: Enzyme kinetics (Lineweaver-Burk plots), Gox0646; format: biochemical, Gluconobacter oxydans; details: other: Gox0646; substrate 0.025 to 10 mM
Experimental: as §5, §6

Molecule | Specific Activities (Gox0646) | Specific Activity (Gox0644) | Specific Activity (Gox1615) | Specific Activity (Gox0502) | Specific Activity (Gox2107) | further results
O=C1Nc2ccccc2C1=O [Isatin] | 0.1 U/mg | 16.1 U/mg | 2.4 U/mg | – | – | –
O=C1C=CC(=O)c2ccccc21 [1,4-naphthoquinone] | 0.2 U/mg | – | – | 16.6 U/mg | 217.5 U/mg | activities (Gox2107; Gox2107, reduction with NADPH): 217.4 µmol/mg/min; Specific Activities (Gox2684): 3.4 U/mg
CC(=O)C(C)=O [2,3-butanedione] | 0.8 U/mg | 60.0 U/mg | 6 U/mg | 0.5 U/mg | < 0.1 U/mg | Specific Activities (Gox2684): 0.5 U/mg; Specific Activity (Gox0313): 28.5 U/mg
CC(=O)C(=O)c1ccccc1 [1-phenyl-1,2-propanedione] | 6.0 U/mg | 75.4 U/mg | 5.4 U/mg | 2,0 U/mg | < 0.1 U/mg | Activity (Gox0646; Table 3, Gox0646, K-phosphate buffer pH 7.0, 0.05 mM NAD(P)H, 30 °C): 6.0 U/mg; Activity (Gox0502; Table 3, Gox0502, K-phosphate buffer pH 7.0, 0.05 mM NAD(P)H, 30 °C): 2.0 U/mg; Activity (Gox0644; Table 3, Gox0644, K-phosphate buffer pH 7.0, 0.05 mM NAD(P)H, 30 °C): 75.4 U/mg; Activity (Gox1615; Table 3, Gox1615, K-phosphate buffer pH 7.0, 0.05 mM NAD(P)H, 30 °C): 5.4 U/mg; Specific Activity (Gox0313): 0.2 U/mg; Activity (Gox0313; Table 3, Gox0313, K-phosphate buffer pH 7.0, 0.05 mM NAD(P)H, 30 °C): 0.2 U/mg
O=C1C=CC(=O)C=C1 [p-benzoquinone] | 0.3 U/mg | – | – | 10 U/mg | 180.5 U/mg | –
B1 | – | – | – | – | – | Km [1]: 3.1 mM; Vmax [1]: 97 U/mg protein; Km [2]: 0.5 mM; Vmax [2]: 95 U/mg protein
B2 | – | – | – | – | – | Km [3]: 9 mM and 9.3 mM; Vmax [3]: 10 U/mg protein and 10.0 µmol/min•mg
